± gives the expanded uncertainty stated by the source.
What was measured:
[1] = xn = mol fraction of the nth substance listed; settings: Wilhelmy plate method
[2] = refractive index (Na D-line) (dimensionless); xn = mol fraction of the nth substance listed; settings: 100.5 kPa, Liquid, Standard Abbe refractometry

CCC(=O)OCc1ccccc1 [benzyl propanoate] + CCO
Settings | refractive index, 288.15 K | refractive index, 298.18 K | refractive index, 308.15 K | refractive index, 318.15 K | surface tension liquid-gas, 288.15 K [mN/m] | surface tension liquid-gas, 298.18 K [mN/m] | surface tension liquid-gas, 308.15 K [mN/m] | surface tension liquid-gas, 318.15 K [mN/m]
[1], x1 = 0.05 | – | – | – | – | 24 ± 0.4 | 23.2 ± 0.4 | 22.3 ± 0.4 | 21.34 ± 0.4
[1], x1 = 0.1 | – | – | – | – | 24.8 ± 0.4 | 24 ± 0.4 | 23.1 ± 0.4 | 22.1 ± 0.4
[1], x1 = 0.15 | – | – | – | – | 25.5 ± 0.4 | 24.64 ± 0.4 | 23.7 ± 0.4 | 22.7 ± 0.4
[1], x1 = 0.2 | – | – | – | – | 26.13 ± 0.4 | 25.25 ± 0.4 | 24.3 ± 0.4 | 23.3 ± 0.4
[1], x1 = 0.25 | – | – | – | – | 26.7 ± 0.4 | 25.78 ± 0.4 | 24.82 ± 0.4 | 23.8 ± 0.4
[1], x1 = 0.3 | – | – | – | – | 27.23 ± 0.4 | 26.3 ± 0.4 | 25.32 ± 0.4 | 24.3 ± 0.4
[1], x1 = 0.35 | – | – | – | – | 27.76 ± 0.4 | 26.8 ± 0.4 | 25.8 ± 0.4 | 24.78 ± 0.4
[1], x1 = 0.4 | – | – | – | – | 28.3 ± 0.4 | 27.31 ± 0.4 | 26.3 ± 0.4 | 25.28 ± 0.4
[1], x1 = 0.45 | – | – | – | – | 28.85 ± 0.4 | 27.84 ± 0.4 | 26.82 ± 0.4 | 25.78 ± 0.4
[1], x1 = 0.5 | – | – | – | – | 29.4 ± 0.4 | 28.36 ± 0.4 | 27.33 ± 0.4 | 26.28 ± 0.4
[1], x1 = 0.55 | – | – | – | – | 29.95 ± 0.4 | 28.89 ± 0.4 | 27.85 ± 0.4 | 26.78 ± 0.4
[1], x1 = 0.6 | – | – | – | – | 30.5 ± 0.4 | 29.43 ± 0.4 | 28.37 ± 0.4 | 27.28 ± 0.4
[1], x1 = 0.65 | – | – | – | – | 31.06 ± 0.41 | 29.97 ± 0.41 | 28.88 ± 0.4 | 27.78 ± 0.4
[1], x1 = 0.7 | – | – | – | – | 31.62 ± 0.41 | 30.52 ± 0.41 | 29.4 ± 0.41 | 28.3 ± 0.41
[1], x1 = 0.75 | – | – | – | – | 32.23 ± 0.41 | 31.1 ± 0.41 | 29.96 ± 0.41 | 28.83 ± 0.41
[1], x1 = 0.8 | – | – | – | – | 32.88 ± 0.41 | 31.7 ± 0.41 | 30.55 ± 0.41 | 29.4 ± 0.41
[1], x1 = 0.85 | – | – | – | – | 33.7 ± 0.41 | 32.5 ± 0.41 | 31.3 ± 0.41 | 30.1 ± 0.41
[1], x1 = 0.9 | – | – | – | – | 34.5 ± 0.41 | 33.3 ± 0.41 | 32.1 ± 0.41 | 30.9 ± 0.41
[1], x1 = 0.95 | – | – | – | – | 35.2 ± 0.41 | 34 ± 0.41 | 32.8 ± 0.41 | 31.6 ± 0.41
[1], x1 = 1 | – | – | – | – | 36 ± 0.41 | 34.8 ± 0.41 | 33.6 ± 0.41 | 32.4 ± 0.41
[2], x1 = 0.05 | 1.38108 ± 0.00031 | 1.37691 ± 0.00031 | 1.37266 ± 0.00031 | 1.36853 ± 0.00032 | – | – | – | –
[2], x1 = 0.1 | 1.39613 ± 0.00031 | 1.39185 ± 0.00032 | 1.38756 ± 0.00032 | 1.38322 ± 0.00032 | – | – | – | –
[2], x1 = 0.15 | 1.40891 ± 0.00032 | 1.40454 ± 0.00032 | 1.4002 ± 0.00032 | 1.39583 ± 0.00032 | – | – | – | –
[2], x1 = 0.2 | 1.42001 ± 0.00032 | 1.41559 ± 0.00032 | 1.41123 ± 0.00032 | 1.40687 ± 0.00032 | – | – | – | –
[2], x1 = 0.25 | 1.42966 ± 0.00032 | 1.42524 ± 0.00032 | 1.42091 ± 0.00032 | 1.41651 ± 0.00032 | – | – | – | –
[2], x1 = 0.3 | 1.43817 ± 0.00032 | 1.43375 ± 0.00032 | 1.42944 ± 0.00032 | 1.425 ± 0.00032 | – | – | – | –
[2], x1 = 0.35 | 1.44572 ± 0.00032 | 1.44128 ± 0.00032 | 1.43696 ± 0.00032 | 1.4325 ± 0.00032 | – | – | – | –
[2], x1 = 0.4 | 1.45248 ± 0.00032 | 1.44801 ± 0.00032 | 1.4437 ± 0.00032 | 1.43922 ± 0.00032 | – | – | – | –
[2], x1 = 0.45 | 1.45858 ± 0.00032 | 1.45408 ± 0.00032 | 1.44977 ± 0.00032 | 1.44524 ± 0.00032 | – | – | – | –
[2], x1 = 0.5 | 1.46414 ± 0.00032 | 1.45962 ± 0.00033 | 1.4553 ± 0.00033 | 1.45072 ± 0.00033 | – | – | – | –
[2], x1 = 0.55 | 1.46918 ± 0.00032 | 1.46464 ± 0.00032 | 1.46031 ± 0.00032 | 1.45569 ± 0.00033 | – | – | – | –
[2], x1 = 0.6 | 1.47384 ± 0.00033 | 1.46929 ± 0.00033 | 1.46494 ± 0.00033 | 1.46029 ± 0.00033 | – | – | – | –
[2], x1 = 0.65 | 1.47807 ± 0.00033 | 1.47352 ± 0.00033 | 1.46917 ± 0.00033 | 1.46451 ± 0.00033 | – | – | – | –
[2], x1 = 0.7 | 1.48193 ± 0.00033 | 1.47737 ± 0.00033 | 1.47302 ± 0.00033 | 1.46833 ± 0.00033 | – | – | – | –
[2], x1 = 0.75 | 1.48549 ± 0.00033 | 1.48092 ± 0.00033 | 1.47658 ± 0.00033 | 1.47188 ± 0.00033 | – | – | – | –
[2], x1 = 0.8 | 1.48877 ± 0.00033 | 1.48419 ± 0.00033 | 1.47986 ± 0.00033 | 1.47516 ± 0.00033 | – | – | – | –
[2], x1 = 0.85 | 1.49183 ± 0.00033 | 1.48725 ± 0.00033 | 1.48292 ± 0.00033 | 1.47824 ± 0.00033 | – | – | – | –
[2], x1 = 0.9 | 1.49464 ± 0.00033 | 1.49006 ± 0.00033 | 1.48574 ± 0.00033 | 1.48106 ± 0.00033 | – | – | – | –
[2], x1 = 0.95 | 1.49721 ± 0.00033 | 1.49265 ± 0.00033 | 1.48834 ± 0.00033 | 1.48366 ± 0.00033 | – | – | – | –
[2], x1 = 1 | 1.4995 ± 0.00034 | 1.49498 ± 0.00034 | 1.49074 ± 0.00034 | 1.48611 ± 0.00034 | – | – | – | –

— the NIST ThermoML archive (doi:10.1021/je060139a)
